Columns and labels:
Assay in all cases: relative viability (nuclei count vs DMSO), 5 days (fraction); higher = more cells survive
Vorinostat + Navitoclax = compound: O=C(CCCCCCC(=O)Nc1ccccc1)NO [Vorinostat] + CC1(C)CCC(c2ccc(Cl)cc2)=C(CN2CCN(c3ccc(C(=O)NS(=O)(=O)c4ccc(N[C@H](CCN5CCOCC5)CSc5ccccc5)c(S(=O)(=O)C(F)(F)F)c4)cc3)CC2)C1 [Navitoclax] (partner 0.5 µM)
Method in brief: (§1)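 Lung cancer cell lines were pin-tool dosed in 1536-well plates on the day after seeding, with either a lone drug or a fixed anchor-drug dose plus five library-drug doses (not always all listed) in √10 steps. Nuclei were counted on 4× images after 5 days. Relative viability is the ratio of treated-well to vehicle-well nuclei counts, with each value a median of duplicate plates.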

Vorinostat + Lapatinib = compound: O=C(CCCCCCC(=O)Nc1ccccc1)NO [Vorinostat] + CS(=O)(=O)CCNCc1ccc(-c2ccc3ncnc(Nc4ccc(OCc5cccc(F)c5)c(Cl)c4)c3c2)o1 [Lapatinib] (partner 2 µM)
Method in brief: as §1

Vorinostat + Linsitinib = compound: O=C(CCCCCCC(=O)Nc1ccccc1)NO [Vorinostat] + C[C@]1(O)C[C@@H](c2nc(-c3ccc4ccc(-c5ccccc5)nc4c3)c3c(N)nccn32)C1 [Linsitinib] (partner 1 µM)
Method in brief: as §1

Vorinostat + Decitabine = compound: O=C(CCCCCCC(=O)Nc1ccccc1)NO [Vorinostat] + Nc1ncn([C@H]2C[C@H](O)[C@@H](CO)O2)c(=O)n1 [Decitabine] (partner 2 µM)
Method in brief: as §1

Cell Line | relative viability (Vorinostat + Navitoclax; first compound 0.253 µM) | relative viability (Vorinostat + Navitoclax; first compound 0.8 µM) | relative viability (Vorinostat + Navitoclax; first compound 2.53 µM) | relative viability (Vorinostat + Navitoclax; first compound 8 µM) | relative viability (Vorinostat + Lapatinib; first compound 0.253 µM) | relative viability (Vorinostat + Lapatinib; first compound 0.8 µM) | relative viability (Vorinostat + Lapatinib; first compound 2.53 µM) | relative viability (Vorinostat + Lapatinib; first compound 8 µM) | relative viability (Vorinostat + Linsitinib; first compound 0.253 µM) | relative viability (Vorinostat + Linsitinib; first compound 0.8 µM) | relative viability (Vorinostat + Linsitinib; first compound 2.53 µM) | relative viability (Vorinostat + Linsitinib; first compound 8 µM) | relative viability (Vorinostat + Decitabine; first compound 0.253 µM) | relative viability (Vorinostat + Decitabine; first compound 0.8 µM) | relative viability (Vorinostat + Decitabine; first compound 2.53 µM) | relative viability (Vorinostat + Decitabine; first compound 8 µM)
HCC-44 | 0.986 | 0.967 | 0.542 | 0.137 | 1.03 | 0.985 | 0.508 | 0.111 | 0.727 | 0.621 | 0.167 | 0.103 | 1.03 | 0.896 | 0.737 | 0.413
NCI-H727 | 0.433 | 0.506 | 0.241 | 0.196 | 0.632 | 0.736 | 0.335 | 0.227 | 0.236 | 0.351 | 0.15 | 0.289 | 0.902 | 0.82 | 0.707 | 0.522
COR-L23 | 1.13 | 0.503 | 0.0887 | 0.0849 | 1.07 | 0.818 | 0.139 | 0.0646 | 0.899 | 0.468 | 0.0916 | 0.0663 | 0.373 | 0.301 | 0.136 | 0.0929
NCI-H596 | 0.943 | 0.942 | 0.279 | 0.145 | 1.26 | 0.971 | 0.781 | 0.307 | 1.02 | 1.04 | 0.677 | 0.335 | 1.07 | 0.902 | 0.68 | 0.36
NCI-H1993 | 1 | 0.998 | 0.608 | 0.438 | 0.959 | 1 | 0.579 | 0.399 | 0.836 | 0.861 | 0.575 | 0.614 | 0.704 | 0.65 | 0.465 | 0.16
NCI-H2023 | 1.08 | 0.91 | 0.449 | 0.0939 | 1.01 | 0.597 | 0.186 | 0.0723 | 0.841 | 0.682 | 0.296 | 0.0892 | 0.242 | 0.177 | 0.11 | 0.0687
NCI-H3122 | 1.09 | 1.08 | 0.959 | 0.184 | 1.03 | 0.981 | 0.939 | 0.167 | 1.12 | 1.05 | 0.605 | 0.142 | 0.45 | 0.582 | 0.269 | 0.117
SW 1573 | 1.12 | 0.891 | 0.349 | 0.0555 | 1.17 | 1.07 | 0.824 | 0.133 | 0.986 | 0.978 | 0.421 | 0.13 | 0.514 | 0.355 | 0.14 | 0.0457
RERF-LC-KJ | 1.25 | 0.754 | 0.251 | 0.291 | 0.938 | 0.781 | 0.733 | 0.227 | 0.983 | 0.855 | 0.694 | 0.168 | 0.79 | 0.614 | 0.184 | 0.254
NCI-H838 | 1.34 | 1.15 | 0.395 | 0.195 | 1.44 | 0.863 | 0.425 | 0.148 | 1.19 | 1.08 | 0.459 | 0.172 | 0.542 | 0.597 | 0.325 | 0.198
HCC-15 | 0.82 | 0.594 | 0.324 | 0.0877 | 0.941 | 0.852 | 0.569 | 0.129 | 0.87 | 0.917 | 0.514 | 0.0962 | 0.69 | 0.521 | 0.2 | 0.0924
SK-LU-1 | 0.785 | 0.528 | 0.109 | 0.111 | 1.05 | 0.738 | 0.449 | 0.16 | 1.11 | 1.02 | 0.64 | 0.211 | 0.655 | 0.669 | 0.494 | 0.196
NCI-H1666 | 0.845 | 0.652 | 0.322 | 0.235 | 0.606 | 0.339 | 0.228 | 0.167 | 0.864 | 0.707 | 0.33 | 0.227 | 0.703 | 0.654 | 0.548 | 0.329
H3255 | 0.595 | 0.598 | 0.2 | 0.0872 | 0.24 | 0.17 | 0.141 | 0.101 | 1.01 | 0.941 | 0.589 | 0.247 | 0.839 | 0.607 | 0.427 | 0.173
SK-MES-1 | 1.51 | 1.18 | 0.494 | 0.162 | 0.504 | 0.438 | 0.433 | 0.187 | 1.09 | 1.02 | 0.495 | 0.21 | 0.362 | 0.364 | 0.212 | 0.163
UMC-11 | 0.277 | 0.154 | 0.0896 | 0.0856 | 1.05 | 0.238 | 0.137 | 0.0786 | 1 | 0.6 | 0.164 | 0.0865 | 0.613 | 0.402 | 0.179 | 0.134
NCI-H1734 | 0.943 | 0.76 | 0.269 | 0.0823 | 1.33 | 0.993 | 0.678 | 0.162 | 0.982 | 0.856 | 0.658 | 0.133 | 0.548 | 0.444 | 0.31 | 0.0873
NCI-H1355 | 1.05 | 0.876 | 0.506 | 0.166 | 1.02 | 0.792 | 0.693 | 0.157 | 0.917 | 0.707 | 0.451 | 0.139 | 0.393 | 0.354 | 0.253 | 0.143
